Experimental data from US20220214354A1, “MEANS AND METHODS FOR SINGLE MOLECULE PEPTIDE SEQUENCING” (VIB VZW, priority 2019, published 2022).
Entries after “also recorded” stand apart in the source; their conditions may differ.

Assays:
[1] = NMR titration repeated with acetylated peptide; assay type: binding; conditions: same conditions as for NH2-Ala-Ala-Phe-amide; N-terminus acetylated
Experimental: The concept is based on the observation that 18-crown-6 ether derivatives can associate with protonated amines such as amino groups present at the N-termini of peptides or proteins (Yeh et al 2009 J Am Soc Mass Spectrom 20:385-393). To determine the exchange rate of the interaction between N-termini of polypeptides and 18-crown-6 ethers, an NMR study was performed. A model peptide (NH2-Ala-Ala-Phe-amide) was used in combination with the 18-crown-6 analogue triaza-trioxo-crown ether (TTC-ether; FIG. 3). The model peptide was designed with an N-terminal Ala to easily determine the shift of the N-terminal Ala methyl group upon binding to the TTC-ether. Solutions of the peptide were prepared in D2O/D-acetonitrile (3 ml/1 ml) with 10 mM D-acetic acid. A concentration of 100 μM peptide was maintained and mixed with varying concentrations of the TTC-ether. […]
A 2D-TOCSY (Total Correlation Spectroscopy) spectrum allows the identification of the position of the two methyl groups of both Ala residues around 1.25 ppm and 1.43 ppm. […] In order to retrieve information about the binding of the crown ether with the peptide, a titration was performed with different concentrations of the TTC-ether after which the shifts for the Ala methyl groups was measured at high resolution. Indeed, Ala-methyl shifts were observed when different TTC-ether/peptide ratios are measured (FIG. 4A). […]

[2] = test system: peptide array [AA1][AA2]GGNNGG; assay: Crown ether binding on PEPperPRINT peptide array (fluorescence intensity); conditions: crown ether 0.1 μg/μl in 0.1% triethanolamine in 50% ACN
Experimental: To study the binding of crown ethers to different peptides, a peptide array is used (PEPperPRINT array), containing an array of 400 peptides comprising peptides with all amino acid combinations at the first and second N-terminal position ([AA1][AA2]GGNNGG; four replicates of each peptide). After applying a fluorescently labeled crown ether (Cy5.5-dibenzo-18-crown-6), the relative affinity for all peptide substrates is determined by the fluorescence intensity on each peptide spot. The crown ether was applied on the peptide array at a concentration of 0.1 μg/μl in 0.1% triethanolamine in 50% ACN. After binding the array was washed two times for 10 sec using the same buffer. Finally, the fluorescence intensity was measured using a LI-COR Odyssey Imaging system. […] The large hydrophobic side chains of the second amino acid likely interact with the hydrophobic regions of the crown ether (crown ether benzene rings and/or cy5.5 fluorophore).

Substance | interaction with TTC-ether (NMR shifts) [1] | relative binding (fluorescence intensity), variable second amino acid ([2]; peptides with N-terminal glycine) | relative binding (fluorescence intensity), variable N-terminal amino acid ([2]; peptides with leucine at the second position)
Acetyl-Ala-Ala-Phe-amide | did not measure any noticeable interaction |  | 
Cy5.5-dibenzo-18-crown-6 |  | strongest on the peptides GFGGNNGG, GLGGNNGG, GYGGNNGG, GIGGNNGG, GKGGNNGG and GWGGNNGG | strongest on N-terminal glycine; also recorded: weakest on N-terminal proline
